Experimental data published in the supplement of paper PMC10307832.

Key:
Assay in all cases: relative viability (nuclei count vs DMSO), 5 days (fraction); higher = more cells survive
[1] = compound: CO[C@@H]1[C@H](N(C)C(=O)c2ccccc2)C[C@H]2O[C@]1(C)n1c3ccccc3c3c4c(c5c6ccccc6n2c5c31)C(=O)NC4 [Midostaurin] + CCNC(=O)c1noc(-c2cc(C(C)C)c(O)cc2O)c1-c1ccc(CN2CCOCC2)cc1 [Luminespib] (partner 0.01 µM)
Summary of the method: (§1)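 A single step with final 0.05% Triton X-100, 1% formaldehyde and 1 ug/ml Hoechst fixed the cells and stained nuclei 5 days after treatment. Lung cancer cell lines in 1536-well plates had been treated by pin tool the day after seeding with one drug alone or a fixed anchor-drug dose plus five library-drug doses (not always all listed) in √10 steps, and nuclei were counted on 4× images. Relative viability is the ratio of nuclei in treated wells to nuclei in vehicle wells, taken as the median of duplicate plates.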

[2] = compound: CO[C@@H]1[C@H](N(C)C(=O)c2ccccc2)C[C@H]2O[C@]1(C)n1c3ccccc3c3c4c(c5c6ccccc6n2c5c31)C(=O)NC4 [Midostaurin] + Nc1nc2[nH]cc(CCc3ccc(C(=O)N[C@@H](CCC(=O)O)C(=O)O)cc3)c2c(=O)[nH]1 [Pemetrexed] (partner 0.2 µM)
Summary of the method: as §1

[3] = compound: COc1cc(-c2nn([C@H]3CC[C@H](N4CCN(C(C)=O)CC4)CC3)c3ncnc(N)c23)ccc1NC(=O)c1cc2ccccc2n1C + CCNC(=O)c1noc(-c2cc(C(C)C)c(O)cc2O)c1-c1ccc(CN2CCOCC2)cc1 [Luminespib] (partner 0.01 µM)
Summary of the method: as §1

[4] = compound: COc1cc(-c2nn([C@H]3CC[C@H](N4CCN(C(C)=O)CC4)CC3)c3ncnc(N)c23)ccc1NC(=O)c1cc2ccccc2n1C + COc1cccc2cc(-c3nc([C@H]4CC[C@H](C(=O)O)CC4)n4ncnc(N)c34)[nH]c12 [OSI-027] (partner 0.5 µM)
Summary of the method: as §1

[5] = compound: COc1cc(-c2nn([C@H]3CC[C@H](N4CCN(C(C)=O)CC4)CC3)c3ncnc(N)c23)ccc1NC(=O)c1cc2ccccc2n1C + CS(=O)(=O)CCNCc1ccc(-c2ccc3ncnc(Nc4ccc(OCc5cccc(F)c5)c(Cl)c4)c3c2)o1 [Lapatinib] (partner 2 µM)
Summary of the method: as §1

Row | Cell Line | relative viability ([1]; first compound 0.01 µM) | relative viability ([1]; first compound 0.03162 µM) | relative viability ([1]; first compound 0.1 µM) | relative viability ([1]; first compound 0.3162 µM) | relative viability ([2]; first compound 0.01 µM) | relative viability ([2]; first compound 0.03162 µM) | relative viability ([2]; first compound 0.1 µM) | relative viability ([2]; first compound 0.3162 µM) | relative viability ([3]; first compound 0.0128 µM) | relative viability ([3]; first compound 0.04048 µM) | relative viability ([3]; first compound 0.128 µM) | relative viability ([3]; first compound 1.28 µM) | relative viability ([4]; first compound 0.0128 µM) | relative viability ([4]; first compound 0.04048 µM) | relative viability ([4]; first compound 0.128 µM) | relative viability ([4]; first compound 1.28 µM) | relative viability ([5]; first compound 0.0128 µM) | relative viability ([5]; first compound 0.04048 µM) | relative viability ([5]; first compound 0.128 µM) | relative viability ([5]; first compound 1.28 µM)
1 | NCI-H2126 | 0.889 | 0.679 | 0.847 | 0.896 | 0.672 | 0.627 | 0.711 | 0.688 | 0.947 | 0.957 | 0.844 | 0.648 | 0.686 | 0.661 | 0.646 | 0.547 | 0.801 | 0.859 | 0.718 | 0.68
2 | NCI-H2170 | 0.628 | 0.509 | 0.633 | 0.767 | 0.297 | 0.268 | 0.265 | 0.266 | 0.663 | 0.79 | 0.669 | 0.373 | 0.81 | 0.468 | 0.701 | 0.687 | 0.253 | 0.283 | 0.243 | 0.249
3 | NCI-H2228 | 0.155 | 0.163 | 0.164 | 0.134 | 0.35 | 0.343 | 0.313 | 0.334 | 0.184 | 0.145 | 0.141 | 0.115 | 0.706 | 0.637 | 0.573 | 0.45 | 1.37 | 0.958 | 1.14 | 0.861
4 | NCI-H2347 | 0.422 | 0.727 | 0.366 | 0.325 | 0.459 | 0.416 | 0.417 | 0.405 | 0.619 |  | 0.576 | 0.34 | 0.406 |  | 0.434 | 0.418 | 1.1 | 0.874 | 0.927 | 1.05
5 | NCI-H2405 | 0.729 | 0.704 | 0.64 | 0.45 | 1.11 | 1 | 0.974 | 1.27 | 0.862 | 0.529 | 0.56 | 0.251 | 0.679 | 0.465 | 0.633 | 0.324 | 1.13 | 0.554 | 0.955 | 0.446
6 | NCI-H3122 | 0.093 | 0.104 | 0.0868 | 0.0981 | 0.201 | 0.185 | 0.201 | 0.19 | 0.0938 |  | 0.0759 | 0.069 | 0.992 | 0.333 | 0.969 | 0.847 | 1.04 |  | 0.99 | 0.841
7 | PC-3 [JPC-3] | 0.736 | 0.658 | 0.667 | 0.692 | 0.979 | 1.07 | 0.962 | 1.22 | 0.681 | 0.838 | 0.712 | 0.711 | 0.817 | 0.817 | 0.77 | 0.771 | 0.444 | 0.444 | 0.431 | 0.462
8 | PC-14 | 0.136 | 0.197 | 0.147 | 0.152 | 0.123 | 0.125 | 0.118 | 0.111 | 0.196 | 0.138 | 0.232 | 0.121 | 0.896 | 1.07 | 0.798 | 0.913 | 0.308 | 0.371 | 0.297 | 0.208
9 | RERF-LC-KJ | 1.29 | 1.49 | 1.14 | 1.17 | 0.477 | 0.476 | 0.492 | 0.463 | 1.24 | 1.36 | 1.28 | 1.29 | 0.634 | 0.536 | 0.581 | 0.569 | 0.911 | 0.915 | 0.849 | 0.857
10 | SK-LU-1 | 0.202 | 0.199 | 0.206 | 0.194 | 0.99 | 0.92 | 0.836 | 0.794 | 0.213 | 0.187 | 0.203 | 0.141 | 0.4 | 0.291 | 0.284 | 0.206 | 0.913 | 0.902 | 0.721 | 0.681
11 | SK-MES-1 | 0.785 | 0.804 | 0.733 | 0.336 | 0.856 | 0.826 | 0.885 | 0.854 | 0.686 | 0.928 | 0.791 | 0.375 | 0.685 | 0.665 | 0.583 | 0.562 | 0.397 | 0.561 | 0.443 | 0.451
12 | SW 1573 | 0.377 | 0.213 | 0.308 | 0.18 | 0.843 | 0.957 | 0.849 | 0.752 | 0.225 | 0.229 | 0.231 | 0.42 | 0.68 | 0.691 | 0.624 | 0.466 | 0.981 | 1 | 0.914 | 0.808
13 | UMC-11 | 1.02 | 0.849 | 0.932 | 0.463 | 0.808 | 0.753 | 0.65 | 0.528 | 0.928 | 0.956 | 0.922 | 0.818 | 0.531 | 0.463 | 0.474 | 0.414 | 1.04 | 0.978 | 0.712 | 0.739
